# pIC50: −log10 of the molar value.
# Assays:
# Caco-2 [1] = assay: Ratio of permeability from basolateral to apical over apical to basolateral side of Caco-2 cell expressing human p-glycoprotein; format: ADME, cell-based
# [2] = Clearance in rat; format: ADME, organism-based; details: in vivo
# [3] = Aqueous solubility of the compound; format: physicochemical
# [4] = biological target: T1, Sodium- and chloride-dependent glycine transporter 1 (Mus musculus, UniProt P28571); assay: Inhibition of mouse GlyT1
# T1 sequence (P28571 whole entry): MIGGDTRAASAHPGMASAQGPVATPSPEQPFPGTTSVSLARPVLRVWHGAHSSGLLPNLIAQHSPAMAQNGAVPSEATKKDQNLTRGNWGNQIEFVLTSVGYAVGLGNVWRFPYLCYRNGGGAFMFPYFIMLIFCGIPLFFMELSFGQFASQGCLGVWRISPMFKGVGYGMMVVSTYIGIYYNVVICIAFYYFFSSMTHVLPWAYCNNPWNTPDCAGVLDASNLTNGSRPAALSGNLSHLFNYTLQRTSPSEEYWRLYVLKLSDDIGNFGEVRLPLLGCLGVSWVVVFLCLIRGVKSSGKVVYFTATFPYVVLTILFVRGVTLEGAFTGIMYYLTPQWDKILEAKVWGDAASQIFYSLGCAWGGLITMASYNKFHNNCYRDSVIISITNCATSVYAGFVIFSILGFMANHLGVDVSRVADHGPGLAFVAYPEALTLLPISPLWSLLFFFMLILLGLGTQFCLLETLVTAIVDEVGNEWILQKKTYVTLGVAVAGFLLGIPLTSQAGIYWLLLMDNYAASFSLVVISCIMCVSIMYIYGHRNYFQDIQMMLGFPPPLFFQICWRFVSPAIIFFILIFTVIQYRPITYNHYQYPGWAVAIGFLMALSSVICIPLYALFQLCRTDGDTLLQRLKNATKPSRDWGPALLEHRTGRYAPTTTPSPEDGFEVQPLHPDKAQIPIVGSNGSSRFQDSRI
# [5] = Half life in rat; format: ADME, organism-based; details: in vivo
# [6] = biological target: T2, Sodium- and chloride-dependent glycine transporter 1 (Rattus norvegicus, UniProt P28572); assay: Inhibition of rat GlyT1
# T2 sequence (P28572 whole entry): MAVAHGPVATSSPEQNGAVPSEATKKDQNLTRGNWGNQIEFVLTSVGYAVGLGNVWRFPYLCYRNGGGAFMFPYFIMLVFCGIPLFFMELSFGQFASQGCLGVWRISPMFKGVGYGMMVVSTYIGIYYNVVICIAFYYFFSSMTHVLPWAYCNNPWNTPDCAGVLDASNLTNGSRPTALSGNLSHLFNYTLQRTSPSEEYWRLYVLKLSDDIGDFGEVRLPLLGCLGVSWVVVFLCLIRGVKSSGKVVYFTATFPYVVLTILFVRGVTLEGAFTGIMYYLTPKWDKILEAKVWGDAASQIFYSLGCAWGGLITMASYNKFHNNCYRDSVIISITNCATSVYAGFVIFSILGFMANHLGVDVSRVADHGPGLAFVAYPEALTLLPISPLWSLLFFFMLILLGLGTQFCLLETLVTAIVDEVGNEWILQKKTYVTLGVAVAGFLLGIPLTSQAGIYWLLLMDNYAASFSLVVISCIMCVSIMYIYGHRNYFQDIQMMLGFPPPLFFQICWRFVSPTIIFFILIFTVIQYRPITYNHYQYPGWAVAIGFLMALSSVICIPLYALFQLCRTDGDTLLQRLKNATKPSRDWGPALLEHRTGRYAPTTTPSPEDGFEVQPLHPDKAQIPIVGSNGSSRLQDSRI
# [7] = biological target: T3, Sodium- and chloride-dependent taurine transporter (Homo sapiens, UniProt P31641); assay: Inhibition of human TauT
# T3 sequence (P31641 whole entry): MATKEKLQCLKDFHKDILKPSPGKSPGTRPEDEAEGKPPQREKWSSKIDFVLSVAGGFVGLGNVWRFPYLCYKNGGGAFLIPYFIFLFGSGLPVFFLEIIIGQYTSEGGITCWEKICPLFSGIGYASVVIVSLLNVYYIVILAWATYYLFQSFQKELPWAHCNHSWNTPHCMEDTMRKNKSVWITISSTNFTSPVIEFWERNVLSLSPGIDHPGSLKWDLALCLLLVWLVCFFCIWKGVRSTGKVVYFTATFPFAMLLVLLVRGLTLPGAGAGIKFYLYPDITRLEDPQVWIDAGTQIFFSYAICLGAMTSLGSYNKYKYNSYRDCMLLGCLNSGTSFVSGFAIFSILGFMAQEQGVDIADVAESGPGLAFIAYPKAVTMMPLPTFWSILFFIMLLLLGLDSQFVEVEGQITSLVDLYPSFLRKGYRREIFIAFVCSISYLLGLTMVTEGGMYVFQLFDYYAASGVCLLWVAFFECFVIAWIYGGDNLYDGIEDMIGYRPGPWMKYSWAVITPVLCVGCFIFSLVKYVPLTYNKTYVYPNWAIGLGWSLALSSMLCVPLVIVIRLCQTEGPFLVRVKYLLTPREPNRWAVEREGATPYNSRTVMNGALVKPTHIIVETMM
# Cytochrome P450 2D6 = Cytochrome P450 2D6 (Homo sapiens, UniProt P10635); assay: Inhibition of CYP2D6; format: ADME
# Sequence of Cytochrome P450 2D6 (P10635 whole entry): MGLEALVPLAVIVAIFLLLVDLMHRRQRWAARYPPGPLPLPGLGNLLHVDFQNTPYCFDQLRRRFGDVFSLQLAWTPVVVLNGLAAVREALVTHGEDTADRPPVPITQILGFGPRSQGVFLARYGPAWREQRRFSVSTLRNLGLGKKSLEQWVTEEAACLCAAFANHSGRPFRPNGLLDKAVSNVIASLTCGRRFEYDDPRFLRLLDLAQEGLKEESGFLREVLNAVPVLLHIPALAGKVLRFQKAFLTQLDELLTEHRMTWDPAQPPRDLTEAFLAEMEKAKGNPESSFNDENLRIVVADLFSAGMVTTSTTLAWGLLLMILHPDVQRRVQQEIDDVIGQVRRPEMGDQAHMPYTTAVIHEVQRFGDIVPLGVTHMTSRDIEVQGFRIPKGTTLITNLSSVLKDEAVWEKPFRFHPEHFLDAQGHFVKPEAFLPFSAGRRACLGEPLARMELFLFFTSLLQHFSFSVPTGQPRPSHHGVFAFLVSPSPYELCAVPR
# [8] = Partition coefficient, log P of the compound; format: physicochemical; details: octanol/water
# Caco-2 [9] = assay: Ratio of permeability from basolateral to apical over apical to basolateral side of Caco-2 cell expressing mouse p-glycoprotein; format: ADME, cell-based; details: human
# [10] = biological target: T4, Sodium- and chloride-dependent glycine transporter 2 (Homo sapiens, UniProt Q9Y345); assay: Inhibition of human GlyT2
# T4 sequence (Q9Y345 whole entry): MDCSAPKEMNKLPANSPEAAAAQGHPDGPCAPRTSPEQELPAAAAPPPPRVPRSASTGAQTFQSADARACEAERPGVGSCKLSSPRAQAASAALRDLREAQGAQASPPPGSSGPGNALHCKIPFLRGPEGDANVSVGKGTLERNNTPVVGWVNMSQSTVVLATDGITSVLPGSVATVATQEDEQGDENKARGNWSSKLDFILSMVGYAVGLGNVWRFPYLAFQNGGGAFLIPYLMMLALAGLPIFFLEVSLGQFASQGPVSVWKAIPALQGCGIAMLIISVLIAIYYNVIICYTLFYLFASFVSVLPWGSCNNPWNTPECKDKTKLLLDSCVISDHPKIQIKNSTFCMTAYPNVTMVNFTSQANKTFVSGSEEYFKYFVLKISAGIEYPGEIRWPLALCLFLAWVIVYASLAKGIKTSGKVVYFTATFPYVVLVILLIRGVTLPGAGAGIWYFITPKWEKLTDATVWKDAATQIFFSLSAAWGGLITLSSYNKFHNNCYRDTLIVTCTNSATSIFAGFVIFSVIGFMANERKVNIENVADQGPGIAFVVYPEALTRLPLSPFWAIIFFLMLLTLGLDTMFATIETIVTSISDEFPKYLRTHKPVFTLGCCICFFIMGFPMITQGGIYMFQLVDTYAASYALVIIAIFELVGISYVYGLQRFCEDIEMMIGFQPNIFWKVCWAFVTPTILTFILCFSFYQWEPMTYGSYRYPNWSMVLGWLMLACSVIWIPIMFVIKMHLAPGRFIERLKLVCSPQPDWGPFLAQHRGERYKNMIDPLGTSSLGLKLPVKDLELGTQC
# Cytochrome P450 3A4 = Cytochrome P450 3A4 (Homo sapiens, UniProt P08684); assay: Inhibition of CYP3A4; format: ADME
# Sequence of Cytochrome P450 3A4 (P08684 whole entry): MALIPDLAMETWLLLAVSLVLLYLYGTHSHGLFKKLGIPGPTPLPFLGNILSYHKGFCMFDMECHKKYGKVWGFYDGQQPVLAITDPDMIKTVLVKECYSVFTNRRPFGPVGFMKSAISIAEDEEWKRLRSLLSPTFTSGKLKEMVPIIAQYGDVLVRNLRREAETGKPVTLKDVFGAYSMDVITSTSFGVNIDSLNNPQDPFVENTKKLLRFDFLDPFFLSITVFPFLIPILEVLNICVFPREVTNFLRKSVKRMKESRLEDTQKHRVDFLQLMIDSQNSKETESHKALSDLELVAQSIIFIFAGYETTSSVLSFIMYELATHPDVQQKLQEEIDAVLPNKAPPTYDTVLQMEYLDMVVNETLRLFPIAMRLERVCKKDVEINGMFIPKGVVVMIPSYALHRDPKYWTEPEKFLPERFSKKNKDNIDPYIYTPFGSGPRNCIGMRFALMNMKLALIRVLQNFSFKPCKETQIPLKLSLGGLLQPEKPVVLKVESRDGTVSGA
Structure (SMILES),Ratio (Caco-2 [1]),clearance [2],solubility [3],pIC50 [4],half-life [5],pIC50 [6],pIC50 [7],Activity (Cytochrome P450 2D6),logP [8],Ratio (Caco-2 [9]),pIC50 [10],Activity (Cytochrome P450 3A4)
CCCS(=O)(=O)N1CCC(CNC(=O)c2ccc(Cl)cc2Cl)(C(=O)N2CCOCC2)CC1,17.9,20.5 mL/min/kg,18000 µg/mL,8.12,22.2 min,8.49,< 4.52,Not Active,1.4,11.4,< 4.52,Not Active
CCCS(=O)(=O)N1CCC(CNC(=O)c2ccc(F)cc2Cl)(C(=O)N2CCOCC2)CC1,10.6,18 mL/min/kg,10000 µg/mL,7.55,18 min,8.00,< 4.52,Not Active,< 1.4,8.9,< 4.52,Not Active
CCCS(=O)(=O)N1CCC(CNC(=O)c2ccccc2Cl)(C(=O)N2CCOCC2)CC1,10.6,18 mL/min/kg,10000 µg/mL,7.02,18 min,7.74,< 4.52,Not Active,< 1.4,8.9,< 4.52,Not Active
CCCS(=O)(=O)N1CCC(CNC(=O)c2c(F)ccc(Cl)c2F)(C(=O)N2CCOCC2)CC1,10.6,18 mL/min/kg,10000 µg/mL,7.37,18 min,7.71,< 4.52,Not Active,< 1.4,8.9,< 4.52,Not Active

# The remaining compounds from weak to strong by pIC50 [4], led by results:
Ratio (Caco-2 [1]),clearance [2],solubility [3],pIC50 [4],half-life [5],pIC50 [6],pIC50 [7],Activity (Cytochrome P450 2D6),logP [8],Ratio (Caco-2 [9]),pIC50 [10],Activity (Cytochrome P450 3A4),Structure (SMILES)
10.6,18 mL/min/kg,10000 µg/mL,7.24,18 min,7.66,< 4.52,Not Active,< 1.4,8.9,< 4.52,Not Active,CCCS(=O)(=O)N1CCC(CNC(=O)c2c(F)cccc2Cl)(C(=O)N2CCOCC2)CC1
10.6,18 mL/min/kg,10000 µg/mL,7.71,18 min,8.13,< 4.52,Not Active,< 1.4,8.9,< 4.52,Not Active,CCCS(=O)(=O)N1CCC(CNC(=O)c2cc(F)c(Cl)cc2Cl)(C(=O)N2CCOCC2)CC1
